Data published in article PMC8789064, “High-Throughput-Methyl-Reading (HTMR) assay: a solution based on nucleotide methyl-binding proteins enables large-scale screening for DNA/RNA methyltransferases and demethylases” (Nucleic Acids Research, 2021).
Like-named read-outs stand apart in the source and are kept apart here.

Columns and labels:
DNMT1(351–1600) = molecular target: T1, DNMT1(351–1600) (Homo sapiens, UniProt P26358); experiment: HTMR (FP-based) DNMT1 methylation assay; format: biochemical
T1 construct: The human DNMT1 (351–1600) gene with N terminal 6xHis tag and a TEV cleavage site; 6xHis (N); TEV cleavage site (N); made in house; host or cells: Spodoptera frugiperda Sf9 (baculovirus)
T1 sequence (P26358 351-1600): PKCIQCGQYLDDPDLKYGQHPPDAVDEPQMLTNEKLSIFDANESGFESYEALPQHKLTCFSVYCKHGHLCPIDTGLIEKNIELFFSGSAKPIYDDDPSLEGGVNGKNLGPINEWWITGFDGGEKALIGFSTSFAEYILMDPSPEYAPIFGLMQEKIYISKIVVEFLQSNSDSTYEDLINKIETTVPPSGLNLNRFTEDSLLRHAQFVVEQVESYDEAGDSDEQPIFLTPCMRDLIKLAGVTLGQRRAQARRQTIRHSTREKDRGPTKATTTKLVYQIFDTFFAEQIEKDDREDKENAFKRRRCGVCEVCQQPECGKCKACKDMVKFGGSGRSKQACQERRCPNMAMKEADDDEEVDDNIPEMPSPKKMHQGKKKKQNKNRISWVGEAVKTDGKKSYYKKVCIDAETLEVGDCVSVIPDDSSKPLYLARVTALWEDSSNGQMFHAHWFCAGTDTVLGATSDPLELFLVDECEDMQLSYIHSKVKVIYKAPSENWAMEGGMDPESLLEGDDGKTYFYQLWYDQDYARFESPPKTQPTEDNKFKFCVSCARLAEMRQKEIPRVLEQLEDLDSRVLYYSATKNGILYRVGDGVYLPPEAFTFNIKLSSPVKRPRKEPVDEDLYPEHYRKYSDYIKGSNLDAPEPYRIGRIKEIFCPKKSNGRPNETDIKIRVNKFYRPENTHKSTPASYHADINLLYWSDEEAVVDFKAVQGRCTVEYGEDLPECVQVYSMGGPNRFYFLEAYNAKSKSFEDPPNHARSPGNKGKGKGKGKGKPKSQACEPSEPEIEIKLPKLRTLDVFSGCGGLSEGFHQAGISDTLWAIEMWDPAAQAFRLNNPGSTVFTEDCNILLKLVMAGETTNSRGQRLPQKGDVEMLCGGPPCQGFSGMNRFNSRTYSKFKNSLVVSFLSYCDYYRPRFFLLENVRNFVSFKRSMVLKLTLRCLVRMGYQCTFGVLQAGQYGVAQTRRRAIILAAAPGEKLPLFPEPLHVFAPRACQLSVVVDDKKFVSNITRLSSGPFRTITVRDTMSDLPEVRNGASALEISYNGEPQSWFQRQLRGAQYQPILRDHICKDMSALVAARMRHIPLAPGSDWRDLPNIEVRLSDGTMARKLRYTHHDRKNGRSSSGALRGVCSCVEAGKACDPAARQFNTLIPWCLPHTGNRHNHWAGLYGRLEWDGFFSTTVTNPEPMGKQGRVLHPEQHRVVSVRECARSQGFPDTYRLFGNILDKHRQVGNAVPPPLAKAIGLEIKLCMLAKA
Description: To start the assay, the binding curve of the substrate oligonucleotide and the product oligonucleotide (chemical synthetic) were titrated to determine the proper concentration of methyl-binding proteins. […] The assays could be performed in 10 μl + 10 μl, 20 μl + 20 μl (as in this study), or other formats in a black 384-well plate (Corning #3575). The former is the reaction volume containing enzyme, oligonucleotide, and cofactors, while the latter is the volume of methyl-binding protein. The reaction was initiated by the addition of the enzymes or the substrates and terminated by the addition of methyl-binding proteins. The FP signals were then measured in fluorescence polarization standard mode by EnVision Multilabel Reader (PerkinElmer) after 10–15 min of incubation. […] All data were analyzed in GraphPad Prism 7.0.
The reaction components (enzyme, oligonucleotide and cofactors) were diluted in a reaction buffer containing 20 mM HEPES, pH 7.4, 1 mM EDTA and 1 mM DTT. […] This was followed by incubation for 10–15 min at RT (room temperature), after which the plate was read by EnVision (PerkinElmer).

DNMT1 = molecular target: T2, DNMT1 (Homo sapiens, UniProt P26358); experiment: DNMT1 FP binding assay (DNA binding of the enzyme)
T2 construct: The human DNMT1 (351–1600) gene with N terminal 6xHis tag and a TEV cleavage site; 6xHis (N); TEV cleavage site (N); made in house; host or cells: Spodoptera frugiperda Sf9 (baculovirus)
T2 sequence (P26358 351-1600): as above
Description: (§1) The FP binding assay of DNMT1 and METTL3/14 was performed in a buffer containing 20 mM HEPES, pH 7.4, and 1 mM DTT. The FP binding assay of TET2 and ALKBH5 was performed in the reaction buffer that removes the NaCl. At high concentrations of NaCl (over 100 mM), weak FP signals were detected for the enzymes.

tri-MBD1 = molecular target: T3, tri-MBD1 (Homo sapiens, UniProt Q9UIS9); experiment: Counter screen: binding of methyl-binding protein tri-MBD1 without enzyme
T3 construct: Genes encoding tri-MBD1 (tandem three MBD1 1–105 ORF); made in house; host or cells: E. coli BL21(DE3) codon plus RIPL
T3 sequence (Q9UIS9 with tags, fused parts or gaps): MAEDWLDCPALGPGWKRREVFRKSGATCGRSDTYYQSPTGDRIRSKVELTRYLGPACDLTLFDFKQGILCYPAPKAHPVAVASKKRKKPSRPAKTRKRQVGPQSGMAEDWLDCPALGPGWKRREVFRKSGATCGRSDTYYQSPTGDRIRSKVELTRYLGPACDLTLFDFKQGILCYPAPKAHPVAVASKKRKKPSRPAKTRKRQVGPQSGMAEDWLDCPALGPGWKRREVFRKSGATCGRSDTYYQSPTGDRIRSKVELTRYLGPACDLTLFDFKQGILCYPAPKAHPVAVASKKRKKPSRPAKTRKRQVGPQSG
From the text: (§2) False-positive compounds should be abandoned during the high-throughput screening. […] This entails replacing half of the substrate oligonucleotide with product oligonucleotide in the absence of the enzyme and adding the methyl-binding protein into the wells. The FP signal can then be measured according to the above steps.
(§3) Finally, we performed high-throughput screening against DNMT1 and ALKBH5 for an in-house library of 2000 compounds. […] Half of the substrate oligonucleotide was replaced with the product (chemical synthetic) in the assay (the enzyme was removed), in which case the false-positive compounds would still influence the FP signal value while the true hits would not. […] We performed a cofactor-competitive assay to evaluate the biological activity and mechanism of action of hit compounds.

TET2 = molecular target: T4, TET2 (Homo sapiens, UniProt Q6N021); experiment: HTMR (FP-based) TET2 demethylation assay; format: biochemical
T4 construct: made in house; host or cells: E. coli BL21(DE3) codon plus RIPL
Description: To start the assay, the binding curve of the substrate oligonucleotide and the product oligonucleotide (chemical synthetic) were titrated to determine the proper concentration of methyl-binding proteins. […] The reaction was initiated by the addition of the enzymes or the substrates and terminated by the addition of methyl-binding proteins. The FP signals were then measured in fluorescence polarization standard mode by EnVision Multilabel Reader (PerkinElmer) after 10–15 min of incubation. […] Additionally, this experiment must avoid strong light exposure.
The reaction buffer containing 20 mM HEPES, pH 8.0, 100 mM NaCl, 1 mM DTT, 1 mM ATP, 1 mM 2-OG, 2 mM ascorbic acid and 100 μM Fe2(NH4)2(SO4)2. Fe^2+ is the last to be added. The reaction contained 40 nM TET2 and 20 nM FAM-labeled fully-methylated DNA occurred at 37°C for 60 min. Next, 20 μl tri-MBD1 (500 nM as final concentration) protein was diluted in 20 mM HEPES, pH 7.4, 500 mM NaCl and transferred into wells to end the reaction. After 10–15 min of incubation, the plate was read by Envision (PerkinElmer).

ALKBH5 [1] = molecular target: T5, ALKBH5 (Homo sapiens, UniProt Q6P6C2); experiment: HTMR (FP-based) ALKBH5 demethylation assay; format: biochemical; conditions: different concentrations of 2-OG
T5 construct: The untagged MBD1 (1–105) and ALKBH5 (66–292) catalytic domain genes were subcloned; made in house; host or cells: E. coli BL21(DE3) codon plus RIPL
T5 sequence (Q6P6C2 66-292): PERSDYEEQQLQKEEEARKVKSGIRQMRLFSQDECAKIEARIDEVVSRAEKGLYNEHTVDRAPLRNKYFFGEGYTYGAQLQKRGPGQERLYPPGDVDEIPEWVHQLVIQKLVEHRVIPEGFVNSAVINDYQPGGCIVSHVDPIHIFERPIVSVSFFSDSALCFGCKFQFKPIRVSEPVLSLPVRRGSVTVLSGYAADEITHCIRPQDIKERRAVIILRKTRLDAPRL
Description: To start the assay, the binding curve of the substrate oligonucleotide and the product oligonucleotide (chemical synthetic) were titrated to determine the proper concentration of methyl-binding proteins. The final NaCl conditions of DNMT1, TET2, METTL3/14 and ALKBH5 were 400, 300, 250 and 250 mM, respectively. The assays could be performed in 10 μl + 10 μl, 20 μl + 20 μl (as in this study), or other formats in a black 384-well plate (Corning #3575). The former is the reaction volume containing enzyme, oligonucleotide, and cofactors, while the latter is the volume of methyl-binding protein. […] The FP signals were then measured in fluorescence polarization standard mode by EnVision Multilabel Reader (PerkinElmer) after 10–15 min of incubation. The plate can be repeatedly measured. […] All data were analyzed in GraphPad Prism 7.0.
The reaction buffer containing 20 mM HEPES, pH 7.4, 250 mM NaCl, 200 μM 2-OG, 300 μM ascorbic acid, and 50 μM […]. […] The plate can then be read immediately or after 10–15 min of incubation due to an equal concentration of NaCl. After this, the plate can be read by EnVision (PerkinElmer).
(§4) All the curves were plotted in the Graphpad prism 7.0. And the IC50 values were determined by the log(inhibitor) versus response—variable slope (four parameters) model in Graphpad prism 7.0. […]

ALKBH5(66–292) [2] = molecular target: T6, ALKBH5(66–292) (Homo sapiens, UniProt Q6P6C2); experiment: Thermal shift assay; format: binding; conditions: 5 μM ALKBH5, 100 μM compound (molar ratio 1:20); read-out: Tm shift (ΔTm) of ALKBH5
T6 construct: The untagged MBD1 (1–105) and ALKBH5 (66–292) catalytic domain genes were subcloned; made in house; host or cells: E. coli BL21(DE3) codon plus RIPL
T6 sequence (Q6P6C2 66-292): as above
Description: The thermal shift assay was performed with a QuantStudio 6 Flex real-time PCR machine (Applied Biosystems) with a buffer containing 20 mM HEPES, pH 7.4 and 100 mM NaCl. The final system was 20 μl, which contained 5 μM ALKBH5(66–292) protein, 1:1000 dilution of SYPRO Orange dye (purchased from Invitrogen, 5000× stock in DMSO), and DMSO or 100 μM compounds (final DMSO concentration was 0.1%). The samples were heated from 25 to 95°C (2.5°C/min). All samples were performed in triplicate and data were analyzed by Protein Thermal Shift Software version 1.3 (Applied Biosystems).

ALKBH5(66–292) [3] = molecular target: T6, ALKBH5(66–292); experiment: NMR CPMG and STD experiments; format: binding; conditions: 200 μM compound, 5 μM ALKBH5
Description: Saturation transfer difference (STD) and Carr-Purcell-Meiboom-Gill (CPMG) experiments were performed to investigate the interaction between the compound and the protein, as previously described ([65]). All NMR spectra were acquired on a Bruker Avance III 600 MHz NMR spectrometer equipped with a cryoprobe (Bruker Biospin, Germany). The 5 μM ALKBH5(66–292) protein and 200 μM compound were dissolved into a phosphate buffer containing 20 mM NaH2PO4, 20 mM Na2HPO4, pH 7.4, 100 mM NaCl, 95% D2O, 5% DMSO-d6 and then used in NMR data acquisition. Transverse relaxation-edited spectra were recorded using the water-suppressed CPMG pulse sequence. Sixty-four transients were collected into 48 076 data points with a spectral width of 8.0 kHz and an acquisition time of 3.0 s. STD spectrum was recorded using the pulse sequence of stddiffgp19.3 with water suppression (3–9–19 WATERGATE). The on and off resonance excitation positions were defined at –0.17 and 33 ppm, respectively. The bandwidth for the saturation pulse was set to 42.4 Hz. One hundred and twenty-eight transients were collected into 32,768 data points with a spectral width of 9.6 kHz and an acquisition time of 1.71 s.

ALKBH5 [4] = molecular target: T5, ALKBH5; experiment: ALKBH5 FP binding assay (RNA binding of the enzyme)
Description: as §1

YTHDF1 = molecular target: T7, YTHDF1 (Homo sapiens, UniProt Q9BYJ9); experiment: Counter screen: binding of methyl-binding protein YTHDF1 without enzyme; conditions: ALKBH5 assay format, enzyme removed
T7 construct: YTHDF1 (361–559), YTHDF2 (380–579) and YTHDC1 (355–492) were chemically synthesized; made in house; host or cells: E. coli BL21(DE3) codon plus RIPL
T7 sequence (Q9BYJ9 361-559): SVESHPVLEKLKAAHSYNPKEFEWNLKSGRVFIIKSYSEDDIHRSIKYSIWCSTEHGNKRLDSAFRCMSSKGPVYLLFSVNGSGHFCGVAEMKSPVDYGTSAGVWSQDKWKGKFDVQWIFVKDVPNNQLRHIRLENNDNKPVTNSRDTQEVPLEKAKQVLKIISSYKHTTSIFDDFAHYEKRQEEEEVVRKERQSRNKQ
From the text: as §2, §3

METTL3/14 = molecular target: T8, METTL3/14 (Homo sapiens, UniProt Q86U44); experiment: HTMR (FP-based) METTL3/METTL14 methylation assay; format: biochemical; conditions: from IC50 vs SAM concentration line, Cheng-Prusoff
T8 construct: The full-length METTL3 and METTL14 plasmids were obtained from Professor Ping Yin; made in house; host or cells: E. coli BL21(DE3) codon plus RIPL
T8 sequence (Q86U44 whole entry): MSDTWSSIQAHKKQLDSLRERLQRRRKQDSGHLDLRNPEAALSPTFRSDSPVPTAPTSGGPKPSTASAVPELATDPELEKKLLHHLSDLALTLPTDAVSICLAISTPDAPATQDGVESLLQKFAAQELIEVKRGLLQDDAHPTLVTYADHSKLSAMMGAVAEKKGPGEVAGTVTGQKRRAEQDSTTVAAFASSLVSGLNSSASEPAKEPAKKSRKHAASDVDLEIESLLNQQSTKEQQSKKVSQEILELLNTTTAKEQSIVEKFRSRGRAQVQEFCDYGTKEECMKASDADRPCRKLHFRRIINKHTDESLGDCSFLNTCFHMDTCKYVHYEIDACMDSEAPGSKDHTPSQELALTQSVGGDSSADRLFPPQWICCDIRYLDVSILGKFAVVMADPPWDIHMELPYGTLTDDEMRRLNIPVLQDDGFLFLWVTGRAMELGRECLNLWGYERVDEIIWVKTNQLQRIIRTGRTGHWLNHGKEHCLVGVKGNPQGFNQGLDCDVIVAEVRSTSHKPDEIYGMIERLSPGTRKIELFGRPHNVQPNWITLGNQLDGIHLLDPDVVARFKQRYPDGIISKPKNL
Description: To start the assay, the binding curve of the substrate oligonucleotide and the product oligonucleotide (chemical synthetic) were titrated to determine the proper concentration of methyl-binding proteins. The final NaCl conditions of DNMT1, TET2, METTL3/14 and ALKBH5 were 400, 300, 250 and 250 mM, respectively. The assays could be performed in 10 μl + 10 μl, 20 μl + 20 μl (as in this study), or other formats in a black 384-well plate (Corning #3575). The former is the reaction volume containing enzyme, oligonucleotide, and cofactors, while the latter is the volume of methyl-binding protein. The reaction was initiated by the addition of the enzymes or the substrates and terminated by the addition of methyl-binding proteins. The FP signals were then measured in fluorescence polarization standard mode by EnVision Multilabel Reader (PerkinElmer) after 10–15 min of incubation. The plate can be repeatedly measured. […] All data were analyzed in GraphPad Prism 7.0.
The enzymes, oligonucleotides, and cofactors were diluted in a reaction buffer containing 20 mM HEPES, pH 7.4, 1 mM DTT and 0.4 U/μl RNase inhibitor (BBI Life sciences). […] After 10–15 min of incubation, the plate was read by Envision (PerkinElmer).
as §4

GST-YTHDF1 YTH domain = molecular target: T9, GST-YTHDF1 YTH domain (UniProt Q9BYJ9 361-559); experiment: fluorescence polarization; 250 mM NaCl; over 100-fold selectivity for m6A over unmodified RNA; FP, 384-well; methyl readers at final NaCl 400 mM (DNMT1 assay), 300 mM (TET2), 250 mM (METTL3/14, ALKBH5), 10-15 min; DNMT1 and METTL3/14 binding in 20 mM HEPES pH 7.4, 1 mM DTT with varied NaCl; TET2 and ALKBH5 in reaction buffer without NaCl; temperature not stated; conditions: protein: recombinant; tags: N-terminal GST; label: 5'-FAM; single strand
T9 sequence: T7 sequence (Q9BYJ9 361-559)

[5] = molecular target: T10, tri-MBD1 (GST-MBD1-MBD1-MBD1) (UniProt Q9UIS9 1-105); experiment: fluorescence polarization; 400 mM NaCl, 20 nM DNMT1 present; FP, 384-well; methyl readers at final NaCl 400 mM (DNMT1 assay), 300 mM (TET2), 250 mM (METTL3/14, ALKBH5), 10-15 min; DNMT1 and METTL3/14 binding in 20 mM HEPES pH 7.4, 1 mM DTT with varied NaCl; TET2 and ALKBH5 in reaction buffer without NaCl; temperature not stated; conditions: protein: recombinant; tags: N-terminal GST (pGEX-6P-1); label: 5'-FAM top strand; blunt
T10 chain: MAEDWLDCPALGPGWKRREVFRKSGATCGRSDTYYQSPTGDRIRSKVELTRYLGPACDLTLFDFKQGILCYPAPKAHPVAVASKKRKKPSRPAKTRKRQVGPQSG

O=c1oc2c(O)c(O)cc3c(=O)oc4c(O)c(O)cc1c4c23 [ellagic acid]
Mechanism with respect to cofactor SAM (DNMT1(351–1600); cofactor-competitive assay, increasing SAM): SAM-noncompetitive | IC50 (DNMT1(351–1600); different concentrations of SAM, read-out: IC50 against DNMT1): ~67 µM | Effect on DNA binding of DNMT1 (DNMT1): competed with the binding of DNA | Effect on DNA binding of DNMT1 (DNMT1; listed as Ellagic acid): disturbed the DNA-DNMT1 | Interference with the assay (counter screen) (tri-MBD1; DNMT1 assay format, enzyme removed): didn’t interference the assay

O=c1c(O)c(-c2ccc(O)c(O)c2)oc2cc(O)cc(O)c12 [quercetin]
Activity during the TET2 demethylation reaction (TET2): high activity | Change of IC50 in the ALKBH5 reaction with 2-OG concentration (ALKBH5 [1]): did not significantly change | ΔTm at 100 µM (ALKBH5(66–292) [2]): 2.57 °C | Direct binding to ALKBH5 catalytic domain (CPMG, STD) (ALKBH5(66–292) [3]): strongly bound | Effect on RNA binding of ALKBH5 (ALKBH5 [4]): did not affect the RNA binding of ALKBH5 | Effect on RNA binding of ALKBH5 (ALKBH5 [4]; listed as Quercetin): didn’t affect the RNA binding | Interference with the assay (counter screen) (YTHDF1): didn’t interference the assay

O=C(O)c1ccc(O)c2ncccc12 [IOX1, reference compound]
Effect on binding of tri-MBD1 (tri-MBD1; high concentration (over 50 μM)): can inhibit the binding of tri-MBD1

Nc1ncnc2c1ncn2[C@@H]1O[C@H](CSCC[C@H](N)C(=O)O)[C@@H](O)[C@H]1O [SAH]
Ki (METTL3/14): 2.06 ± 2.8 µM

GAACCGGACUGUCUUA (ssRNA, m6A at position 8) [m6A-modified RNA]
binding result (GST-YTHDF1 YTH domain): binds

B1: fully-methylated DNA [M/M] (dsDNA)
DNA 1: TACGACCAGGAT
DNA 2: ATCCTGGTCGTA
modifications: 5mC at position 3 of top strand and position 9 of bottom strand
binding result [5]: binds
